Experimental data taken from patent US9586928B2 (The Scripps Research Institute, priority 2011, dated 2017).

Assays:
[1] = mouse, in vivo; cited from earlier work
TH17 cells = conditions: in vitro and in vivo; cited from earlier work
EL-4 cells [2] = test: IL-17A and IL-23R mRNA in PMA/ionomycin stimulated EL-4 cells (real-time PCR); assay type: cell-based, murine; conditions: 5 μM pre-treatment 20 hr, PMA/ionomycin stimulation
Experimental: (§1) The treatment of EL4 with SR2211 repressed the Il17 gene expression to a greater extent as compared to digoxin. […] In order to measure the effect of SR2211 on IL-17 production, we determined the intracellular levels of IL-17 using flow cytometry. After the stimulation of EL-4 cells with PMA/ionomycin for 3 hr, the cells were treated with BD GolgiPlug™ (protein transport inhibitor) to allow intracellular accumulation of cytokines. After 2 hr, the cells were fixed and stained to analyze the IL-17 by flow cytometry.
One million EL-4 cells were seeded in each well of 6 well plate and incubated with 5 uM of digoxin or SR2211 or DMSO for 20 hrs. Cells were then stimulated with phorbol 12-myristate 13-acetate (PMA) (50 ng/ml; Sigma) and Ionomycin (1 ug/ml; Sigma) for 5 hours. Then, RNA was extracted with RNeasy midi kit using DNase I (Qiagen), then cDNA was synthesized with high capacity cDNA Reverse Transcription kits (Applied Biosystems). IL17A gene expression was normalized to the expression of GAPDH. IL17A, IL-23R and GAPDH primer sets were as follows: […]

EL-4 cells [3] = test: Intracellular IL-17 in PMA/ionomycin stimulated EL-4 cells (flow cytometry); assay type: cell-based, murine; conditions: 5 μM, compared to vehicle treated cells
Experimental: as §1
For intracellular cytokine staining, cells were stimulated with PMA (50 ng/Ml) and lonomycin (1 ug/ml) for 5 hrs. After 3 hrs of incubation, BD Golgiplug (BD Bioscience) was added and incubated for 2 hrs. Then, cells were fixed, permeabilized, and stained with PEIL17A Ab (BD Biosciences). Cell sorting was performed using LSRII (BD Biosciences). • 1. Ivanov, I I; McKenzie, B. S.; Zhou, L.; Tadokoro, C. E.; Lepelley, A.; Lafaille, J. J.; Cua, D. J.; Littman, D. R. (2006) The orphan nuclear receptor RORgammat directs the differentiation program of proinflammatory IL-17+ T helper cells. Cell 126, 1121-1133. • 2. Nakae, S.; Nambu, A.; Sudo. K.; Iwakura. Y. (2003) Suppression of immune induction of collagen-induced arthritis in IL-17-deficient mice. J Immunol 171, 6173-6177. • 3. Jetten. […]

SMILES	onset and severity of EAE [1]	TH17 cell differentiation and function (TH17 cells)	IL-17 gene expression (EL-4 cells [2])	expression of IL-23 receptor (Il23r) (EL-4 cells [2])	IL-17 intracellular staining (EL-4 cells [3])
CC(=O)Nc1nc(C)c(S(=O)(=O)Nc2ccc(C(O)(C(F)(F)F)C(F)(F)F)cc2)s1 [SR1001, N-(5-(N-(4-(1,1,1,3,3,3-hexafluoro-2-hydroxypropan-2-yl)phenyl)sulfamoyl)-4-methylthiazol-2-yl)acetamide]	effective at delaying the onset and reducing the severity	effective at suppressing TH17 cell differentiation and function in vitro and in vivo	–	–	–
C[C@H]1O[C@@H](O[C@H]2[C@@H](O)C[C@H](O[C@H]3[C@@H](O)C[C@H](O[C@H]4CC[C@@]5(C)[C@H](CC[C@@H]6[C@@H]5C[C@@H](O)[C@]5(C)[C@@H](C7=CC(=O)OC7)CC[C@]65O)C4)O[C@@H]3C)O[C@@H]2C)C[C@H](O)[C@@H]1O [digoxin, reference compound]	–	–	significant reduction in the IL-17 gene expression	significantly inhibited	significant inhibition of IL-17 intracellular staining
